Target: T1, Housefly GABA receptors (Musca domestica, UniProt Q75NA5)
T1 sequence (Q75NA5 30-576): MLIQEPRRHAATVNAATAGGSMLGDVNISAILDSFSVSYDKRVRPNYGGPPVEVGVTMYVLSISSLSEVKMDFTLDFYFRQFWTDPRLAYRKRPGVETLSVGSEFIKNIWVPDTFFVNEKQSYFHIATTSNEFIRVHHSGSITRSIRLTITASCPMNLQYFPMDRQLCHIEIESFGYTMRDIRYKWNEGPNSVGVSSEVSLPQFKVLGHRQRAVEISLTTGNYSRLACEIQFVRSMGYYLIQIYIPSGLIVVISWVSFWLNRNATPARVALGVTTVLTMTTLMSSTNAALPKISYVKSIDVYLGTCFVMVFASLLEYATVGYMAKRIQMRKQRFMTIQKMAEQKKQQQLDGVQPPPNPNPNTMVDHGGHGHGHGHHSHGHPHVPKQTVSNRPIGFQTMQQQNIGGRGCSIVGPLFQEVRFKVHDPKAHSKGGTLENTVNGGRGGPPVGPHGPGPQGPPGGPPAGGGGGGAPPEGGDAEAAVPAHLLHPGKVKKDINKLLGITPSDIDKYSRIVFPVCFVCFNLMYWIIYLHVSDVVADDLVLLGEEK
Assay: In vitro assay of binding to housefly GABA receptors (3H-EBOB displacement, housefly neuronal membranes)
Details: for Compounds with the most activity (housefly 3H-EBOB binding): housefly neuronal membranes
Method in brief: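 Head neuronal membranes (20/35% sucrose interface) incubated 45 min at 24 °C in 10 mM phosphate, 300 mM NaCl, pH 7.5, with 3H-EBOB (added solution 5.2 nM) and membranes added at 0.5–1.0 mg/mL. Bound label captured on polyethylenimine-treated glass fibre filters and counted by scintillation.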

SMILES	Compounds with the most activity (housefly 3H-EBOB binding)	IC50 (displacement of 5.2 nM 3H-EBOB, housefly head neuronal membranes, about 45 min at about 24° C., read-out: IC50 (nM), Fly Head) [nM]
FC(F)(F)c1cc(Cl)c(-n2cc3c(n2)CCCCC3)c(Cl)c1 [Compound 15, 2-[2,6-Dichloro-4-(trifluoromethyl)phenyl]-2,4,5,6,7,8-hexahydrocyclohepta[c]pyrazole]	most activity	
FC(F)(F)c1cc(Cl)c(-n2cc3c(n2)CCC3)c(Cl)c1 [Compound 11, 2-[2,6-Dichloro-4-(trifluoromethyl)phenyl]-2,4,5,6-tetrahydrocyclopenta[c]pyrazole]	most activity	83
FC(F)(F)c1cc(Cl)c(-n2cc3c(n2)CSC3)c(Cl)c1 [Compound 3, 2-[2,6-Dichloro-4-(trifluoromethyl)phenyl]-4,6-dihydrothieno-[3,4-c]pyrazole]	most activity	
